{
  "source": "patent US20220281848A1",
  "about": "“PYRAZOLE-SUBSTITUTED PYRROLIDINONES AS HERBICIDES” (FMC Corporation, priority 2019, published 2022)",
  "assay_type_in_all_cases": "in vivo",
  "key": {"[1]": {"test_system": "plants", "experiment": "Test D post-emergence, other plants of Tables D2 and D4", "details": "post-emergence", "outline": "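Seeds treated with herbicide safener; sown in soil; glasshouse, 16 h light, 65% humidity. Sprayed day 1 (pre) or ~day 12 (post). Spray in 0.2% v/v adjuvant. Scored 0–100 damage: 20 DAA pre, 15 d post.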"}, "[2]": {"test_system": "redroot pigweed (Amaranthus retroflexus, AMARE)", "experiment": "Test A post-emergence, redroot pigweed", "details": "after 13 d", "outline": "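Visual damage rating (0 no damage to 100 total damage) was made 13 d after spraying. The spray was 15.625, 62.5 or 250 g/ha in 50:50 acetone/water with 0.5% Tween 20, applied to 8-day-old glasshouse plants kept at 24/16° C, 14 h light and 65% humidity.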"}, "[3]": {"test_system": "ivy-leaved morning glory (Ipomoea hederacea, IPOHE)", "experiment": "Test A pre-emergence, ivy-leaved morning glory", "details": "after 13 d", "outline": "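Damage rated 0–100 (100 = total) 13 d after spraying. Application was one day post-sowing at 15.625, 62.5 or 250 g/ha, formulated in 50:50 acetone/water plus 0.5% Tween 20. Pots held in glasshouse at 24/16 °C day/night, 14 h light, 65% humidity, watered twice daily.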"}},
  "data": [
    {"smiles": "CCn1nc([C@@H]2CN(C)C(=O)[C@H]2C(=O)Nc2cccc(F)c2F)c2cccc(F)c21", "note": "[Compound 14]", "values": [
      {"measurement": "damage to plant (100=total damage to plant; 0=no damage to plant), AMARE", "setting": "[1]; rate 130, evaluated after 15 d", "value": 0},
      {"measurement": "damage to plant (100=total damage to plant; 0=no damage to plant), AMARE", "setting": "[1]; rate 250, evaluated after 15 d", "value": 0},
      {"measurement": "damage to plant (100=total damage to plant; 0=no damage to plant), AMARE", "setting": "[1]; rate 500, evaluated after 15 d", "value": 30},
      {"measurement": "damage to plant (100=total damage to plant; 0=no damage to plant), BIDPI", "setting": "[1]; rate 130, evaluated after 15 d", "value": 10},
      {"measurement": "damage to plant (100=total damage to plant; 0=no damage to plant), BIDPI", "setting": "[1]; rate 250, evaluated after 15 d", "value": 20},
      {"measurement": "damage to plant (100=total damage to plant; 0=no damage to plant), BIDPI", "setting": "[1]; rate 500, evaluated after 15 d", "value": 30},
      {"measurement": "damage to plant (100=total damage to plant; 0=no damage to plant), BRAPL", "setting": "[1]; rate 130, evaluated after 15 d", "value": 80},
      {"measurement": "damage to plant (100=total damage to plant; 0=no damage to plant), BRAPL", "setting": "[1]; rate 250, evaluated after 15 d", "value": 70},
      {"measurement": "damage to plant (100=total damage to plant; 0=no damage to plant), BRAPL", "setting": "[1]; rate 500, evaluated after 15 d", "value": 80},
      {"measurement": "damage to plant (100=total damage to plant; 0=no damage to plant), CYPES", "setting": "[1]; rate 130, evaluated after 15 d", "value": 0},
      {"measurement": "damage to plant (100=total damage to plant; 0=no damage to plant), CYPES", "setting": "[1]; rate 250, evaluated after 15 d", "value": 0},
      {"measurement": "damage to plant (100=total damage to plant; 0=no damage to plant), CYPES", "setting": "[1]; rate 500, evaluated after 15 d", "value": 0},
      {"measurement": "damage to plant (100=total damage to plant; 0=no damage to plant), DIGSA", "setting": "[1]; rate 130, evaluated after 15 d", "value": 60},
      {"measurement": "damage to plant (100=total damage to plant; 0=no damage to plant), DIGSA", "setting": "[1]; rate 250, evaluated after 15 d", "value": 70},
      {"measurement": "damage to plant (100=total damage to plant; 0=no damage to plant), DIGSA", "setting": "[1]; rate 500, evaluated after 15 d", "value": 70},
      {"measurement": "damage to plant (100=total damage to plant; 0=no damage to plant), ECHCG", "setting": "[1]; rate 250, evaluated after 15 d", "value": 80},
      {"measurement": "damage to plant (100=total damage to plant; 0=no damage to plant), ECHCG", "setting": "[1]; rate 500, evaluated after 15 d", "value": 80},
      {"measurement": "damage to plant (100=total damage to plant; 0=no damage to plant), ELEIN", "setting": "[1]; rate 130, evaluated after 15 d", "value": 0},
      {"measurement": "damage to plant (100=total damage to plant; 0=no damage to plant), ELEIN", "setting": "[1]; rate 250, evaluated after 15 d", "value": 0},
      {"measurement": "damage to plant (100=total damage to plant; 0=no damage to plant), ELEIN", "setting": "[1]; rate 500, evaluated after 15 d", "value": 0},
      {"measurement": "damage to plant (100=total damage to plant; 0=no damage to plant), EPHHL", "setting": "[1]; rate 130, evaluated after 15 d", "value": 20},
      {"measurement": "damage to plant (100=total damage to plant; 0=no damage to plant), EPHHL", "setting": "[1]; rate 250, evaluated after 15 d", "value": 30},
      {"measurement": "damage to plant (100=total damage to plant; 0=no damage to plant), EPHHL", "setting": "[1]; rate 500, evaluated after 15 d", "value": 50},
      {"measurement": "damage to plant (100=total damage to plant; 0=no damage to plant), GLXMA", "setting": "[1]; rate 130, evaluated after 15 d", "value": 0},
      {"measurement": "damage to plant (100=total damage to plant; 0=no damage to plant), GLXMA", "setting": "[1]; rate 250, evaluated after 15 d", "value": 0},
      {"measurement": "damage to plant (100=total damage to plant; 0=no damage to plant), GLXMA", "setting": "[1]; rate 500, evaluated after 15 d", "value": 0},
      {"measurement": "damage to plant (100=total damage to plant; 0=no damage to plant), IPOHE", "setting": "[1]; rate 130, evaluated after 15 d", "value": 0},
      {"measurement": "damage to plant (100=total damage to plant; 0=no damage to plant), IPOHE", "setting": "[1]; rate 250, evaluated after 15 d", "value": 10},
      {"measurement": "damage to plant (100=total damage to plant; 0=no damage to plant), IPOHE", "setting": "[1]; rate 500, evaluated after 15 d", "value": 20},
      {"measurement": "damage to plant (100=total damage to plant; 0=no damage to plant), ORYSA", "setting": "[1]; rate 130, evaluated after 15 d", "value": 0},
      {"measurement": "damage to plant (100=total damage to plant; 0=no damage to plant), ORYSA", "setting": "[1]; rate 250, evaluated after 15 d", "value": 0},
      {"measurement": "damage to plant (100=total damage to plant; 0=no damage to plant), ORYSA", "setting": "[1]; rate 500, evaluated after 15 d", "value": 0},
      {"measurement": "damage to plant (100=total damage to plant; 0=no damage to plant), PANMI", "setting": "[1]; rate 130, evaluated after 15 d", "value": 0},
      {"measurement": "damage to plant (100=total damage to plant; 0=no damage to plant), PANMI", "setting": "[1]; rate 250, evaluated after 15 d", "value": 0},
      {"measurement": "damage to plant (100=total damage to plant; 0=no damage to plant), PANMI", "setting": "[1]; rate 500, evaluated after 15 d", "value": 0},
      {"measurement": "damage to plant (100=total damage to plant; 0=no damage to plant), SETFA", "setting": "[1]; rate 130, evaluated after 15 d", "value": 70},
      {"measurement": "damage to plant (100=total damage to plant; 0=no damage to plant), SETFA", "setting": "[1]; rate 250, evaluated after 15 d", "value": 70},
      {"measurement": "damage to plant (100=total damage to plant; 0=no damage to plant), SETFA", "setting": "[1]; rate 500, evaluated after 15 d", "value": 70},
      {"measurement": "damage to plant (100=total damage to plant; 0=no damage to plant), SIDSP", "setting": "[1]; rate 130, evaluated after 15 d", "value": 0},
      {"measurement": "damage to plant (100=total damage to plant; 0=no damage to plant), SIDSP", "setting": "[1]; rate 250, evaluated after 15 d", "value": 0},
      {"measurement": "damage to plant (100=total damage to plant; 0=no damage to plant), SIDSP", "setting": "[1]; rate 500, evaluated after 15 d", "value": 30},
      {"measurement": "damage to plant (100=total damage to plant; 0=no damage to plant), SORVU", "setting": "[1]; rate 130, evaluated after 15 d", "value": 0},
      {"measurement": "damage to plant (100=total damage to plant; 0=no damage to plant), SORVU", "setting": "[1]; rate 250, evaluated after 15 d", "value": 0},
      {"measurement": "damage to plant (100=total damage to plant; 0=no damage to plant), SORVU", "setting": "[1]; rate 500, evaluated after 15 d", "value": 20},
      {"measurement": "damage to plant (100=total damage; 0=no damage) AMARE", "setting": "[2]; Post-Emergence at 15.625 g/ha", "value": 0},
      {"measurement": "damage to plant (100=total damage; 0=no damage) AMARE", "setting": "[2]; Post-Emergence at 62.5 g/ha", "value": 0},
      {"measurement": "damage to plant (100=total damage; 0=no damage) AMARE", "setting": "[2]; Post-Emergence at 250 g/ha", "value": 0},
      {"measurement": "damage to plant (100=total damage; 0=no damage) IPOHE", "setting": "[3]; Pre-Emergence at 15.625 g/ha", "value": 30},
      {"measurement": "damage to plant (100=total damage; 0=no damage) IPOHE", "setting": "[3]; Pre-Emergence at 62.5 g/ha", "value": 40},
      {"measurement": "damage to plant (100=total damage; 0=no damage) IPOHE", "setting": "[3]; Pre-Emergence at 250 g/ha", "value": 70}
    ]}
  ]
}
